Drawing on patent US20100272831A1, “PROCESS FOR MANUFACTURING NANOCOMPOSITE MATERIALS FOR MULTISECTORAL APPLICATIONS” (NANOBIOMATTERS, S.L., priority 2005, published 2010), this text covers dMODIFIER for 39 molecules.

The nature of data set [1]: Interlayer (basal) spacing of montmorillonite clay treated with expansive-type precursors/modifiers. Format: physicochemical.
Data set [2] is described as follows: Interlayer (basal) spacing of kaolinite clay treated with expansive-type precursors/modifiers. Format: physicochemical. From the text:
The penetration of the precursors is accelerated by means of the use of temperature, a turbulent regime homogenizer, ultrasound, pressure or a combination thereof. They can be dried by evaporation in a stove, lyophilization, centrifugation processes and/or gravimetric processes in solution or turbo-drying processes or by atomization processes.
In this example the modification process consists of a first step in which the purified kaolinite and montmorillonite clay fining agents are pretreated with an ethanol/water 50/50 (v/v) mixture at 50° C. This process was carried out together with an ultrasonic stirring treatment process for 1 hour and with stirring with a homogenizer for 2 hours to favor the intercalation of the precursor in the clay. The solvent was then removed by means of lyophilization and/or evaporation. […]

Where [3] appears, read: montmorillonite, spacing of the clay with the named modifier.
[4] abbreviates: kaolinite of Table 1, spacing of the clay with the named modifier.

The molecule `CC(O)CO` (stereo not drawn) [1,2-Propanediol] returned a dMODIFIER in data set [1] (setting [3]) of 1.09 nm.

`OCCCO` [1,3-Propanediol]: the dMODIFIER in data set [1] (setting [3]) was 0.98 nm.

As to `CC=O` [Acetaldehyde], the dMODIFIER in data set [2] (setting [4]) is 0.91 nm.

On to `CC(N)=O` [Acetamide], for which the dMODIFIER in data set [2] (setting [4]) came out at 1.09 nm.

Consider `CC(=O)O` [Acetic acid], for which the dMODIFIER in data set [2] (setting [4]) is 1.10 nm.

For the molecule `O=C(O)CCCCC(=O)O` [Adipic acid], the dMODIFIER in data set [2] (setting [4]) came out at 1.03 nm.

In data set [1] (setting [3]), `OC[C@@H](O)[C@@H](O)[C@@H](O)CO` [Adonitol] yielded a dMODIFIER of 1.04 nm.

On to `NN` [Anhydrous hydrazine], for which the dMODIFIER in data set [2] (setting [4]) worked out at 0.96 nm.

Take `C=CC(N)=O` [Archylamide]: the dMODIFIER in data set [2] (setting [4]) came out at 1.14 nm.

Take `CCCC(=O)O` [Butyric acid]: the dMODIFIER in data set [2] (setting [4]) stood at 1.01 nm.

For the molecule `O=C1CCCCCN1` [Caprolactam], the dMODIFIER in data set [2] (setting [4]) was found to be 1.18 nm.

`OCCOCCO` [Diethylene glycol]: the dMODIFIER in data set [1] (setting [3]) was found to be 1.04 nm.

On to `C[S+](C)[O-]` [Dimethyl sulfoxide (DMSO), Dimethyl sulfoxide], for which the dMODIFIER in data set [2] (setting [4]) was determined as 1.11 nm.

Take `OCCO` [Ethylene glycol]: the dMODIFIER in data set [1] was found to be 0.95 nm.

The molecule `OCC(O)CO` [Glycerol] came in with a dMODIFIER in data set [1] (setting [3]) of 1.02 nm.

Molecule `O=C(O)CO` [Glycolic acid] displayed a dMODIFIER in data set [1] (setting [3]) of 1.06 nm.

Regarding `C1CCCCC1` [Hexamethylene], in data set [2] (setting [4]), the dMODIFIER amounted to 1.02 nm.

Regarding `CCCCCC(=O)O` [Hexanoic acid], the dMODIFIER in data set [2] (setting [4]) is 1.23 nm.

With `NN.O` [Hydrated hydrazine], the dMODIFIER in data set [2] (setting [4]) was 1.03 nm.

On to `CC(O)C(=O)O` (stereo not drawn) [Lactic acid], for which the dMODIFIER in data set [2] (setting [4]) is reported as 1.08 nm.

`O=C(O)/C=C\C(=O)O` [Maleic acid]: in data set [2] (setting [4]), the dMODIFIER is listed as 1.20 nm.

Take `O=C1C=CC(=O)O1` [Maleic anhydride]: in data set [2] (setting [4]), the dMODIFIER was found to be 1.20 nm.

As to `CNC=O` [N-methyl formamide (NMF), N-methyl formamide], the dMODIFIER in data set [2] (setting [4]) came out at 1.02 nm.

Turning to `CC(=O)[O-].[K+]` [Potassium acetate], in data set [2], the dMODIFIER was 1.39 nm.

With `CC(O)CO` (stereo not drawn) [Propylene glycol], the dMODIFIER in data set [1] (setting [3]) is on record as 1.01 nm.

As to `O=C(O)c1ccccc1O` [Salicylic acid], the dMODIFIER in data set [2] (setting [4]) is 1.07 nm.

Take `OC[C@@H](O)[C@H]1OC[C@H](O)[C@H]1O` [Sorbitan]: in data set [1] (setting [3]), the dMODIFIER is given as 1.09 nm.

With `OC[C@@H](O)[C@@H](O)[C@H](O)[C@@H](O)CO` [Sorbitol], in data set [1] (setting [3]), the dMODIFIER was 1.19 nm.

As for `O=C(OC[C@H]1O[C@@H](OC(=O)c2cc(O)c(O)c(OC(=O)c3cc(O)c(O)c(O)c3)c2)[C@H](OC(=O)c2cc(O)c(O)c(OC(=O)c3cc(O)c(O)c(O)c3)c2)[C@@H](OC(=O)c2cc(O)c(O)c(OC(=O)c3cc(O)c(O)c(O)c3)c2)[C@@H]1OC(=O)c1cc(O)c(O)c(OC(=O)c2cc(O)c(O)c(O)c2)c1)c1cc(O)c(O)c(OC(=O)c2cc(O)c(O)c(O)c2)c1` [Tannic acid], the dMODIFIER in data set [2] (setting [4]) was determined as 1.09 nm.

For the molecule `FC(F)=C(F)F` [Tetrafluoroethylene], the dMODIFIER in data set [2] was 0.98 nm.

Molecule `OCCOCCOCCO` [Triethylene glycol] yielded a dMODIFIER in data set [1] (setting [3]) of 1.08 nm.

With `C=COC(C)=O` [Vinyl acetate], in data set [2] (setting [4]), the dMODIFIER turned out to be 1.21 nm.

As for `C=CN1CCCC1=O` [Vinyl pyrrolidone], the dMODIFIER in data set [1] (setting [3]) is on record as 1.23 nm.

For `O` [Water], in data set [2] (setting [4]), the dMODIFIER is recorded as 0.78 nm.

Consider Calcium butyrate, for which the dMODIFIER in data set [1] (setting [3]) is listed as 0.92 nm.

In the case of Manganese acetate, in data set [2] (setting [4]), the dMODIFIER amounted to 1.41 nm.

The molecule Manganese butyrate returned a dMODIFIER in data set [1] (setting [3]) of 0.95 nm.

Consider Sucrose acetoisobutyrate, for which the dMODIFIER in data set [1] (setting [3]) is listed as 1.08 nm.

As for Vinyl versatate, the dMODIFIER in data set [1] (setting [3]) came to 1.11 nm.
